Reference: patent US20250230193A1, “CYCLIC COMPOUND HAVING SELECTIVE KRAS INHIBITORY EFFECT ON HRAS AND NRAS” (CHUGAI SEIYAKU KABUSHIKI KAISHA, priority 2022, published 2025)

Assays:
[1] = molecular target: GDP-bound HRAS wild-type protein (Homo sapiens, UniProt P01112); assay: Binding to HRAS by surface plasmon resonance (SPR), Single Cycle Kinetics; conditions: SPR; for HRAS/KRAS (ratio of KD value with respect to HRAS to KD value with respect to KRAS) / HRAS/KRAS (ratio of KD value for HRAS to KD value for KRAS): GDP-bound HRAS wild-type vs GDP-bound KRAS wild-type
Sequence of GDP-bound HRAS wild-type protein (P01112 whole entry): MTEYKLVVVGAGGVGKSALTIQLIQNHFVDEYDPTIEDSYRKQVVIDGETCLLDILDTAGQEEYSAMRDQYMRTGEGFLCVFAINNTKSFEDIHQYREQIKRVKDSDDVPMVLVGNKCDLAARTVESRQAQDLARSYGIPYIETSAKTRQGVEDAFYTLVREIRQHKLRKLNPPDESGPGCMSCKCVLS

[2] = molecular target: GDP-bound NRAS wild-type protein (Homo sapiens, UniProt P01111); assay: Binding to NRAS by surface plasmon resonance (SPR), Single Cycle Kinetics; conditions: SPR; for NRAS/KRAS (ratio of KD value with respect to NRAS to KD value with respect to KRAS) / NRAS/KRAS (ratio of KD value for NRAS to KD value for KRAS): GDP-bound NRAS wild-type vs GDP-bound KRAS wild-type
Sequence of GDP-bound NRAS wild-type protein (P01111 whole entry): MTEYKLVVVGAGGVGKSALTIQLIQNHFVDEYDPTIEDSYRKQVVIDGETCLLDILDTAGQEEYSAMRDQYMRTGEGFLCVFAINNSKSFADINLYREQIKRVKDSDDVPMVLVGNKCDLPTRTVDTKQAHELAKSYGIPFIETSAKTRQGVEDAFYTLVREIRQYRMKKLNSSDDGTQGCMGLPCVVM

CCC[C@@H]1C[C@H]2C(=O)NC3(CC(C)(C)C3)C(=O)N(C)[C@@H](C3CCCC3)C(=O)N(C)[C@H](C(=O)N(C)C)CC(=O)N(C)[C@@H](C)C(=O)N[C@@H]([C@@H](C)CC)C(=O)N(C)CC(=O)N(C)[C@H]3C/C=C\CCN(C3=O)[C@@H](Cc3ccc(C(F)(F)F)cc3)C(=O)N(C)CC(=O)N[C@@H](CCc3cc(F)c(C(F)(F)F)c(F)c3)C(=O)N2C1 [PP2273]
HRAS/KRAS (ratio of KD value with respect to HRAS to KD value with respect to KRAS) [1]: A (a compound having 10 or more and less than 20 is denoted as A) | NRAS/KRAS (ratio of KD value with respect to NRAS to KD value with respect to KRAS) [2]: AA (a compound having 20 or more is denoted as AA)

CCCOC[C@H]1C(=O)N[C@@H]([C@@H](C)CC)C(=O)N(C)CC(=O)N(C)[C@H]2C/C=C\CCN(C2=O)[C@@H](Cc2ccc(C(F)(F)F)cc2)C(=O)N(C)CC(=O)N[C@@H](CCc2ccc(C(F)(F)F)c(OC)c2)C(=O)N2C[C@H](OCC)C[C@H]2C(=O)NC2(CCC2)C(=O)N(C)[C@@H](C2CCCC2)C(=O)N(C)[C@H](C(=O)N(C)CCC)CC(=O)N1C [PP2017]
HRAS/KRAS (ratio of KD value for HRAS to KD value for KRAS) ([1]; KD ratio): A (a compound having 10 or more and less than 20 is denoted as A) | NRAS/KRAS (ratio of KD value for NRAS to KD value for KRAS) ([2]; KD ratio): A (a compound having 10 or more and less than 20 is denoted as A)

CC[C@H](C)[C@@H]1NC(=O)[C@H](CC(C)C)N(C)C(=O)C[C@@H](C(=O)N2CCCC2)N(C)C(=O)[C@H](C2CCCC2)N(C)C(=O)C2(CCCC2)NC(=O)[C@@H]2CCCN2C(=O)[C@H](CCc2cc(F)c(C(F)(F)F)c(F)c2)NC(=O)CN(C)C(=O)[C@H](Cc2ccc(C(F)(F)F)cc2)N2CCCCC[C@@H](C2=O)N(C)C(=O)CN(C)C1=O [PP0509]
HRAS/KRAS (ratio of KD value with respect to GDP-bound HRAS wild-type protein to KD value with respect to KRAS) ([1]; KD ratio HRAS/KRAS): B (a compound having 3 or more and less than 10 is denoted as B) | NRAS/KRAS (ratio of KD value with respect to GDP-bound NRAS wild-type protein to KD value with respect to KRAS) ([2]; KD ratio NRAS/KRAS): B (a compound having 3 or more and less than 10 is denoted as B)

CCC[C@H]1C(=O)N[C@@H]([C@@H](C)CC)C(=O)N(C)CC(=O)N(C)[C@H]2C/C=C\CCN(C2=O)[C@@H](Cc2ccc(C)cc2)C(=O)N(C)CC(=O)N[C@@H](CCc2ccc(C(F)(F)F)c(OC)c2)C(=O)N2C[C@H](OCC)C[C@H]2C(=O)NC2(CCC2)C(=O)N(C)[C@@H](C2CCCC2)C(=O)N(C)[C@H](C(=O)N(C)C)CC(=O)N1C [PP1871]
HRAS/KRAS (ratio of KD value for HRAS to KD value for KRAS) ([1]; KD ratio): A (a compound having 10 or more and less than 20 is denoted as A) | NRAS/KRAS (ratio of KD value for NRAS to KD value for KRAS) ([2]; KD ratio): A (a compound having 10 or more and less than 20 is denoted as A)

CCOC1CC2C(=O)NC3(CCC3)C(=O)N(C)C(C(C)CC)C(=O)N(C)[C@H](C(=O)N3CCOCC3)CC(=O)N(C)[C@@H](CC(C)C)C(=O)N[C@@H]([C@@H](C)CC)C(=O)N(C)CC(=O)N(C)[C@H]3CCCCN(C3=O)[C@@H](Cc3ccc(C(F)(F)F)cc3)C(=O)N(C)CC(=O)N[C@@H](CCc3cc(F)c(C(F)(F)F)c(F)c3)C(=O)N2C1 (some centres unmarked) [PP0812]
HRAS/KRAS (ratio of KD value with respect to HRAS to KD value with respect to KRAS) ([1]; KD ratio): B (a compound having 3 or more and less than 10 is denoted as B) | NRAS/KRAS (ratio of KD value with respect to NRAS to KD value with respect to KRAS) ([2]; KD ratio): B (a compound having 3 or more and less than 10 is denoted as B)

C=CCN1CC(=O)N(C)[C@H]2C/C=C\CCN(C2=O)[C@@H](Cc2ccc(C)cc2)C(=O)N(C)CC(=O)N[C@@H](CCc2cc(F)c(C(F)(F)F)c(F)c2)C(=O)N2C[C@H](OCC)C[C@H]2C(=O)NC2(CC(C)(C)C2)C(=O)N(C)[C@@H](C2CCCC2)C(=O)N(C)[C@H](C(=O)N(C)C)CC(=O)N(C)[C@@H](CC(C)C)C(=O)N[C@@H]([C@@H](C)CC)C1=O [PP2050]
HRAS/KRAS (ratio of KD value with respect to HRAS to KD value with respect to KRAS) [1]: A (a compound having 10 or more and less than 20 is denoted as A) | NRAS/KRAS (ratio of KD value with respect to NRAS to KD value with respect to KRAS) [2]: A (a compound having 10 or more and less than 20 is denoted as A)

CCO[C@@H]1C[C@H]2C(=O)NC3(CCC3)C(=O)N(C)[C@@H](C3CCCC3)C(=O)N(C)[C@H](C(=O)N(C)C)CC(=O)N(C)[C@@H](Cc3cccs3)C(=O)N[C@@H]([C@@H](C)CC)C(=O)N(C)CC(=O)N(C)[C@H]3C/C=C\CCN(C3=O)[C@@H](Cc3ccc(C(F)(F)F)cc3)C(=O)N(C)CC(=O)N[C@@H](CCc3cc(F)c(C(F)(F)F)c(F)c3)C(=O)N2C1 [PP1123]
HRAS/KRAS (ratio of KD value with respect to HRAS to KD value with respect to KRAS) ([1]; KD ratio): B (a compound having 3 or more and less than 10 is denoted as B) | NRAS/KRAS (ratio of KD value with respect to NRAS to KD value with respect to KRAS) ([2]; KD ratio): A (a compound having 10 or more and less than 20 is denoted as A)
